Earlier results on 33 compounds are cited in patent US20110081780A1, “AQUEOUS DISPERSION FOR CHEMICAL MECHANICAL POLISHING AND CHEMICAL MECHANICAL POLISHING METHOD” (JSR CORPORATION, priority 2008, published 2011).

For the first data set the following is noted: commercially available products.
Turning to “2,4,7,9-tetramethyl-5-decyne-4,7-diol-dipolyoxyethylene ethers [Surfynol 465]”, the HLB value is 13. Turning to “2,4,7,9-tetramethyl-5-decyne-4,7-diol-dipolyoxyethylene ethers [Surfynol 485]”, the HLB value is listed as 17.

The conditions of a further data set: 25° C.; second carboxyl group if two carboxyl groups, third if three or more.
One may read the pKa as the pH at which an ionisable group is half protonated. For `O=C(O)[C@@H]1CCCCC[C@H]1C(=O)O` (relative stereo) [1,2-Cycloheptanedicarboxylic acid (trans)], the pKa is 6.18. `O=C(O)[C@@H]1CCCCCC[C@H]1C(=O)O` (relative stereo) [1,2-Cyclooctanedicarboxylic acid (trans)]: the pKa is reported as 6.24. For `O=C(O)[C@H]1CCCCC[C@H]1C(=O)O` [1,2-Cycloheptanedicarboxylic acid (cis)], the pKa is listed as 7.60. In the case of `O=C(O)[C@H]1CCCCCC[C@H]1C(=O)O` [1,2-Cyclooctanedicarboxylic acid (cis)], the pKa is recorded as 7.34. Consider `CCC(CC)(C(=O)O)C(=O)O` [2,2-Diethylmalonic acid], for which the pKa is 7.42. Take `CC(C)C(C(=O)O)(C(=O)O)C(C)C` [2,2-Diisopropylmalonic acid]: the pKa is recorded as 8.85. Turning to `CC(C)(C)C(C(=O)O)C(C(=O)O)C(C)(C)C` (stereo not drawn) [2,3-Di-t-butylsuccinic acid], the pKa is 10.26. With `CCC(C(=O)O)C(CC)C(=O)O` (stereo not drawn) [2,3-Diethylsuccinic acid], the pKa is reported as 6.46. As for `CC(C(=O)O)C(C)C(=O)O` (stereo not drawn) [2,3-Dimethylsuccinic acid], the pKa is 6.00. Regarding `CCC(CC)C(CC)(CCC(=O)O)C(=O)O` (stereo not drawn) [2-Ethyl-2-(1-ethylpropyl)glutaric acid], the pKa was 7.31. As for `CCC(C)(C(=O)O)C(=O)O` [2-Ethyl-2-methylmalonic acid], the pKa is 6.55. Regarding `CCC(C(=O)O)C(C)C(=O)O` (stereo not drawn) [2-Ethyl-3-methylsuccinic acid], the pKa is 6.10. As for `CCC(C(=O)O)C(=O)O` [2-Ethylmalonic acid], the pKa is on record as 5.81.

As for `CC(C)C(C(=O)O)C(=O)O` [2-Isopropylmalonic acid], the pKa is 5.88. Take `CC1CCCCC1(CC(=O)O)CC(=O)O` (stereo not drawn) [2-Methylcyclohexyl-1,1-diacetic acid]: the pKa is on record as 6.89.

Consider `CC(C(=O)O)C(=O)O` [2-Methylmalonic acid], for which the pKa was 5.76.

With `CCC(CC)(CC(=O)O)CC(=O)O` [3,3-Diethylglutaric acid], the pKa was 7.42. With `CC(C)C(CC(=O)O)(CC(=O)O)C(C)C` [3,3-Diisopropylglutaric acid], the pKa was 7.68.

In the case of `CC(C)(CC(=O)O)CC(=O)O` [3,3-Dimethylglutaric acid], the pKa is on record as 6.45. On to `CCCC(CCC)(CC(=O)O)CC(=O)O` [3,3-Dipropylglutaric acid], for which the pKa is listed as 7.48. Regarding `CCC(CC(=O)O)(CC(=O)O)c1ccccc1` [3-Ethyl-3-phenylglutaric acid], the pKa is reported as 6.95. As to `CC(C)C(C)(CC(=O)O)CC(=O)O` [3-Isopropyl-3-methylglutaric acid], the pKa is reported as 6.92. Turning to `CCC(C)(CC(=O)O)CC(=O)O` [3-Methyl-3-ethylglutaric acid], the pKa was 6.70. On to `CC(CC(=O)O)(CC(=O)O)c1ccccc1` [3-Methyl-3-phenylglutaric acid], for which the pKa is recorded as 6.17. Take `CC(C)(C)C(C)(CC(=O)O)CC(=O)O` [3-t-Butyl-3-methylglutaric acid]: the pKa was 7.49. Turning to `O=C(O)CC1(CC(=O)O)CCCCC1` [Cyclohexyl-1,1-diacetic acid], the pKa is recorded as 7.08. With `O=C(O)CC1(CC(=O)O)CCCC1` [Cyclopentyl-1,1-diacetic acid], the pKa is recorded as 6.77. Regarding `O=C(O)CC(C(=O)O)c1ccccc1` (stereo not drawn) [Phenylsuccinic acid], the pKa is on record as 5.55. As for `CC(C)(C(=O)O)C(C)(C)C(=O)O` [Tetramethylsuccinic acid], the pKa is reported as 7.41.

Take `O=C(O)c1cccc(O)c1` [m-Hydroxvbenzoic acid]: the pKa is 9.96. As to `O=C(O)c1ccc(O)cc1` [p-Hydroxybenzoic acid], the pKa is listed as 9.46.
